By Ki is commonly meant the equilibrium dissociation constant of an inhibitor or competing ligand from its target.

The target in the first test is T1, LRRK2 (Homo sapiens, UniProt Q5S007, G2019S).
T1 construct: purchased Invitrogen PV4882 (lot 567054A)
T1 sequence (Q5S007 whole entry G2019S): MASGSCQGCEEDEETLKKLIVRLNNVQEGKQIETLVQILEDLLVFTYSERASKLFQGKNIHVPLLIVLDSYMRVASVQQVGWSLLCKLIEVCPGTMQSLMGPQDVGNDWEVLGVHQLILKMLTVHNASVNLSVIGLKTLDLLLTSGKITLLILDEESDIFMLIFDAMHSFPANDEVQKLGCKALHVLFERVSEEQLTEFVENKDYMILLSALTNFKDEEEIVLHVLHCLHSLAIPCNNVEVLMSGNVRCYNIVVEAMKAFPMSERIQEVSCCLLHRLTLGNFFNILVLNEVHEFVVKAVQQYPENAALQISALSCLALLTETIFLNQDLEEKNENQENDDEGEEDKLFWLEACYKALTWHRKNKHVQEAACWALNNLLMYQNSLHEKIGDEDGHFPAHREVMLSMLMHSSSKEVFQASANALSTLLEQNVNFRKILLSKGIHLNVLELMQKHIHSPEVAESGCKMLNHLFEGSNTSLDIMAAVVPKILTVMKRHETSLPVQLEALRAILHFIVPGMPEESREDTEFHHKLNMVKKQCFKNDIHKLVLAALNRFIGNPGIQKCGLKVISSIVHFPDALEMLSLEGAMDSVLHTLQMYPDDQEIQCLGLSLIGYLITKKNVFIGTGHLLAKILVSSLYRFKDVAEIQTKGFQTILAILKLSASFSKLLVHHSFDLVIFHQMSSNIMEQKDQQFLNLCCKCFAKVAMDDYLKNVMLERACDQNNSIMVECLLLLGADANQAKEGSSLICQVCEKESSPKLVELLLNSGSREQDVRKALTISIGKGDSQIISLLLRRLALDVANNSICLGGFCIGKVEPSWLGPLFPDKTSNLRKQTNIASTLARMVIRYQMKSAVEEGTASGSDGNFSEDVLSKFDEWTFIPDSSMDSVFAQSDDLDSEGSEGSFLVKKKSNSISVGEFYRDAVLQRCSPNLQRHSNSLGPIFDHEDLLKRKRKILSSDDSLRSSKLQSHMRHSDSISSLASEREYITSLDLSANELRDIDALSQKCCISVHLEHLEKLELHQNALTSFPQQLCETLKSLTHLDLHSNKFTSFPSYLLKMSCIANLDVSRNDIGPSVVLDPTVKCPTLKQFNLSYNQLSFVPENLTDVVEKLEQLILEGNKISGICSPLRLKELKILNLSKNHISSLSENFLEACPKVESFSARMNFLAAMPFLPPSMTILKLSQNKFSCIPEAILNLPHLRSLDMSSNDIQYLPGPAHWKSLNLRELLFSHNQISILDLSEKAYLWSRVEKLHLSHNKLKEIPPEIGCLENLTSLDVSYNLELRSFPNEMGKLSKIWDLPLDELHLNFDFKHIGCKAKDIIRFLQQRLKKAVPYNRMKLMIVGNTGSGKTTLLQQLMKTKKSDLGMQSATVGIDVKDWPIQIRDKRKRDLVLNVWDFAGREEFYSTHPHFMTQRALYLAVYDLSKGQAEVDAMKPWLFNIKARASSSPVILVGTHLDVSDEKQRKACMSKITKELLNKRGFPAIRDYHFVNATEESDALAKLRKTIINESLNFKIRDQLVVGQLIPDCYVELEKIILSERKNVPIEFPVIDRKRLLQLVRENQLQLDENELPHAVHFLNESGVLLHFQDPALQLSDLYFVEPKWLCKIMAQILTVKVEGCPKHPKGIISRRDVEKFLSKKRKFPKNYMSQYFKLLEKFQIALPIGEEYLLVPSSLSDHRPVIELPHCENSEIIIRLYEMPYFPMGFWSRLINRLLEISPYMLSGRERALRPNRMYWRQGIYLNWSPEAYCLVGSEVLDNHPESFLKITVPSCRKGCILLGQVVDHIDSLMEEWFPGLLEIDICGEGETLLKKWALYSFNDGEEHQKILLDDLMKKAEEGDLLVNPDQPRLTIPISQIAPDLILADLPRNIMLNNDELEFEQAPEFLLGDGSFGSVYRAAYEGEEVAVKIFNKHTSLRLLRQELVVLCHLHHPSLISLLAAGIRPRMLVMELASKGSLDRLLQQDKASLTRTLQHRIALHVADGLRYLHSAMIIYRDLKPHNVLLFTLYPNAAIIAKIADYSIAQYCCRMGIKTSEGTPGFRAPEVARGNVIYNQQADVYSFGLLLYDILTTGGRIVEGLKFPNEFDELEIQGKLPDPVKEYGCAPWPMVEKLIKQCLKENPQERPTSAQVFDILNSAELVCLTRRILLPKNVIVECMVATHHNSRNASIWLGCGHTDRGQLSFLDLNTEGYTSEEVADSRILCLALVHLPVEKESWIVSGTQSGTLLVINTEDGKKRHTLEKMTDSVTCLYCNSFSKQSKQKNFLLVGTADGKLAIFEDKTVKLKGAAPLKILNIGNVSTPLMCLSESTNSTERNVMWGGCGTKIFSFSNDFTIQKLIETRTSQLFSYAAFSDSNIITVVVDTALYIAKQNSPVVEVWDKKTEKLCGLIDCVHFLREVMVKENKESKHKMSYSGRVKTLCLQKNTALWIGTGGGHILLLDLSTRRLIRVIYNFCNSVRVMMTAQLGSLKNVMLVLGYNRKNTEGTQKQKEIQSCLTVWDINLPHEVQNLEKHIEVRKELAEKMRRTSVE
As to the kind of experiment: In Vitro LRRK2 Assay (LabChip 3000, fluorescently-labeled peptide substrate, ATP). Format: biochemical. The conditions noted are these: Table 9; LRRK2 Ki (micromolar); read-out: LRRK2 Ki (KI). The gist of the method:
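Read-out was LabChip capillary electrophoresis, resolving phospho- from non-phospho-peptide by fluorescence intensity. The kinase reaction combined enzyme, ATP, test compound and labeled peptide (4 μM working dilution) for 2 h in darkness before stop solution. Values were reported as Ki, from a tight-binding model with Et, S and Km, or as IC50 or percent inhibition.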
Regarding `CNc1nc(Nc2cn(-c3cc(F)cc(F)c3)nc2C)ncc1C#N` [Example 367, 2-(1-(3,5-difluorophenyl)-3-methyl-1H-pyrazol-4-ylamino)-4-(methylamino) pyrimidine-5-carbonitrile], the Ki turned out to be 1.8 nM.

Still in this test, the particulars now being: Table 10; LRRK2 Ki (micromolar); read-out: LRRK2 Ki (KI).
As for `CNc1nc(Nc2cnn([C@@H](C)C(=O)N(C)C)c2C)ncc1C(F)(F)F` [Example 414, (S)-N,N-dimethyl-2-(5-methyl-4-(4-(methylamino)-5-(trifluoromethyl)pyrimidin-2-ylamino)-1H-pyrazol-1-yl)propanamide], the Ki turned out to be 30 nM.
In the case of `CNc1nc(Nc2cn([C@@H](C)C#N)nc2C)ncc1C(F)(F)F` [Example 416, (S)-2-(3-methyl-4-(4-(methylamino)-5-(trifluoromethyl)pyrimidin-2-ylamino)-1H-pyrazol-1-yl)propanenitrile], the Ki came out at 1.9 nM.
Still for that read-out and setting: under `CNc1nc(Nc2cnn(C(C)(C)C(=O)NCC3CC3)c2C)ncc1C(F)(F)F` [Example 426, N-(cyclopropylmethyl)-2-methyl-2-(5-methyl-4-(4-(methylamino)-5-(trifluoromethyl)pyrimidin-2-ylamino)-1H-pyrazol-1-yl)propanamide] stands 9 nM; under `CNc1nc(Nc2cn(C3(C#N)CC3)nc2C)ncc1C(F)(F)F` [Example 402, 1-(3-methyl-4-(4-(methylamino)-5-(trifluoromethyl)pyrimidin-2-ylamino)-1H-pyrazol-1-yl)cyclopropane-carbonitrile], 3.7 nM; under `CCNc1nc(Nc2cn(C(C)(C)C#N)nc2C)ncc1C(F)(F)F` [Example 451, 2-[4-(4-Ethylamino-5-trifluoromethyl-pyrimidin-2-ylamino)-3-methyl-pyrazol-1-yl]-2-methyl-propionitrile], 0.3 nM.

The same test, now with this note: read-out: LRRK2 Ki (KI), Table 7.
In the case of `CNc1nc(Nc2ccnn2C(C)C)ncc1C(F)(F)F` [Example 47, N^2-(1-isopropyl-1H-pyrazol-5-yl)-N^4-methyl-5-(trifluoromethyl) pyrimidine-2,4-diamine], the Ki is 112 nM.
Turning to `COc1nc(Nc2cnn(C3CCOCC3)c2C)ncc1Cl` [Example 80, (5-Chloro-4-methoxy-pyrimidin-2-yl)-[5-methyl-1-(tetrahydro-pyran-4-yl)-1H-pyrazol-4-yl]-amine], the Ki amounted to 66.3 nM.
For `COc1nc(Nc2cc(C(C)C)nn2C)ncc1Cl` [Example 41, 5-Chloro-N-(3-isopropyl-1-methyl-1H-pyrazol-5-yl)-4-methoxy-pyrimidin-2-amine], the Ki amounted to 70 nM.
In the case of `COc1nc(Nc2cnn(C3CCOCC3)c2Cl)ncc1Cl` [Example 85, (5-Chloro-4-methoxy-pyrimidin-2-yl)-[5-chloro-1-(tetrahydro-pyran-4-yl)-1H-pyrazol-4-yl]-amine], the inhibition constant Ki came to 6.6 nM.

The same test, now with this note: read-out: LRRK2 Ki (KI), Table 8.
`CCC(C)S(=O)(=O)n1cc(Nc2ncc(C(F)(F)F)c(NC)n2)c(C)n1` (stereo not drawn) [Example 220, N2-(1-(sec-butylsulfonyl)-3-methyl-1H-pyrazol-4-yl)-N4-methyl-5-(trifluoromethyl) pyrimidine-2,4-diamine]: the inhibitory constant (Ki) stood at 11.7 nM.
Regarding `CNc1nc(Nc2cnn(-c3ccnc(C)c3)c2C)ncc1C(F)(F)F` [Example 142, N4-methyl-N2-(5-methyl-1-(2-methylpyridin-4-yl)-1H-pyrazol-4-yl)-5-(trifluoromethyl) pyrimidine-2,4-diamine], the Ki worked out at 0.3 nM.
Turning to `CNc1nc(Nc2cn(CCF)nc2C)ncc1C(F)(F)F` [Example 130, N2-(1-(2-fluoroethyl)-3-methyl-1H-pyrazol-4-yl)-N4-methyl-5-(trifluoromethyl) pyrimidine-2,4-diamine], the Ki worked out at 1.1 nM.
With `CNc1nc(Nc2cnn(C[C@@H](C)OC)c2C)ncc1C(F)(F)F` [Example 192, (R)-N2-(1-(2-methoxypropyl)-5-methyl-1H-pyrazol-4-yl)-N4-methyl-5-(trifluoromethyl) pyrimidine-2,4-diamine], the Ki stood at 6.3 nM.
Consider `CCNc1nc(Nc2cn(CCOC)nc2C)ncc1C(F)(F)F` [Example 294, N4-Ethyl-N2-[1-(2-methoxy-ethyl)-3-methyl-1H-pyrazol-4-yl]-5-trifluoromethyl-pyrimidine-2,4-diamine], for which the Ki was 1.1 nM.

(Values after patent US8815882B2, “Pyrazole aminopyrimidine derivatives as LRRK2 modulators” (Genentech, Inc., priority 2010, dated 2014).)
